Measured values: ChEMBL document CHEMBL4043275, “Design, synthesis and biological evaluation of phthalimide-alkylamine derivatives as balanced multifunctional cholinesterase and monoamine oxidase-B inhibitors for the treatment of Alzheimer's disease” (Bioorg Med Chem Lett, 2017)

Assays:
[1] = molecular target: T1, Amine oxidase [flavin-containing] A (Homo sapiens, UniProt P21397); assay: Inhibition of human recombinant MAO-A expressed in baculovirus infected BTI insect cells at 20 uM using kynuramine as substrate after 30 mins by fluorescence assay relative to control; conditions: 0.5 h
T1 sequence (P21397 whole entry): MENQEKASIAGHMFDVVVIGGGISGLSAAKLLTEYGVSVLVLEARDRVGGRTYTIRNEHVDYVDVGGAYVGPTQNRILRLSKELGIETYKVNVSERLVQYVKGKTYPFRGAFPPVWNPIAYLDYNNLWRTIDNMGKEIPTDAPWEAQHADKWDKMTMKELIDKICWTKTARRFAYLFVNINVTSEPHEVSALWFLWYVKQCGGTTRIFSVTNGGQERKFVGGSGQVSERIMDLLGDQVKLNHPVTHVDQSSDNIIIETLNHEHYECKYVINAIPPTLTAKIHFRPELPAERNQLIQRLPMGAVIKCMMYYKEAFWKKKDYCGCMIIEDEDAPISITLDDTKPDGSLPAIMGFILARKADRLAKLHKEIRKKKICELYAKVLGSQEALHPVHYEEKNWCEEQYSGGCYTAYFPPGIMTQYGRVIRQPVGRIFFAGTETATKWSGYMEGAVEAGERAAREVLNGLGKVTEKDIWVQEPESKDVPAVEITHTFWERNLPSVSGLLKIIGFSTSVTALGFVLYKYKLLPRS

Butyrylcholinesterase = Butyrylcholinesterase (Rattus norvegicus, UniProt Q9JKC1); assay: Inhibition of rat serum BChE using butyrylthiocholine chloride as substrate incubated for 15 mins by Ellman's method
[2] = molecular target: T2, Amine oxidase [flavin-containing] B (Homo sapiens, UniProt P27338); assay: Inhibition of human recombinant MAO-B expressed in baculovirus infected BTI insect cells using kynuramine as substrate after 30 mins by fluorescence assay; type: cell-based
T2 sequence (P27338 whole entry): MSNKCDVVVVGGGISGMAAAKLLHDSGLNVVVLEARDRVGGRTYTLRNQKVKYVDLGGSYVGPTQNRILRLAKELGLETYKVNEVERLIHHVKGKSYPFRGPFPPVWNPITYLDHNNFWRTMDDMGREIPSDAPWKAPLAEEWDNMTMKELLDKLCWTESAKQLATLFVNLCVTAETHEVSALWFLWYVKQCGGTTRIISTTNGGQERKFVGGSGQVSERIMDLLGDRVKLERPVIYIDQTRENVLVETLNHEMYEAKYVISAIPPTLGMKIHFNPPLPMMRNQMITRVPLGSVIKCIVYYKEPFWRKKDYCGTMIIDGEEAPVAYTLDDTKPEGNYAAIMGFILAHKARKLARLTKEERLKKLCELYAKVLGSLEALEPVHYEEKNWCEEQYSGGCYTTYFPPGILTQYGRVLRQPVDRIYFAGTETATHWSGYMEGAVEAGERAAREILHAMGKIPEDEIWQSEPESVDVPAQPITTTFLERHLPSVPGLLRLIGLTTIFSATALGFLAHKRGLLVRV

[3] = Selectivity index, ratio of IC50 for equine serum BChE to IC50 for electric eel AChE
Acetylcholinesterase [4] = molecular target: Acetylcholinesterase (Electrophorus electricus, UniProt O42275); assay: Inhibition of electric eel AChE using acetylthiocholine chloride as substrate incubated for 15 mins by Ellman's method
Acetylcholinesterase [5] = molecular target: T3, Acetylcholinesterase (Rattus norvegicus, UniProt P37136); assay: Inhibition of rat cortex homogenate AChE using acetylthiocholine chloride as substrate incubated for 15 mins by Ellman's method
T3 sequence (P37136 whole entry): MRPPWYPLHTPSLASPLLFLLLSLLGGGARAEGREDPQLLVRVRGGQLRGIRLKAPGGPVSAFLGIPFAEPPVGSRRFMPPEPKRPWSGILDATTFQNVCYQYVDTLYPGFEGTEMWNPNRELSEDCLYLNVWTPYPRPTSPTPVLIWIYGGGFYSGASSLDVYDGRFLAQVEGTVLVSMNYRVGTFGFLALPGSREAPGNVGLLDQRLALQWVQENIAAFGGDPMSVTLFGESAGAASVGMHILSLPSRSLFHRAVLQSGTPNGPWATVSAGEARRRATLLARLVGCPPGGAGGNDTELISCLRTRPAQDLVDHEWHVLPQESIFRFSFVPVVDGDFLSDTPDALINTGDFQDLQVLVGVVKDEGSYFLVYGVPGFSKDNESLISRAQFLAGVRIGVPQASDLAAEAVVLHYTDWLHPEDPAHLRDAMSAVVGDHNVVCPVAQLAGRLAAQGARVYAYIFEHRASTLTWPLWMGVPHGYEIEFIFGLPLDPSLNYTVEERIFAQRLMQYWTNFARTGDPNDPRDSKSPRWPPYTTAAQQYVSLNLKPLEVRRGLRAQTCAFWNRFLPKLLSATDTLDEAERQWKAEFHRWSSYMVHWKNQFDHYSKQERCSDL

Cholinesterase [6] = molecular target: Cholinesterase (Equus caballus, UniProt P81908); assay: Inhibition of equine serum BChE using butyrylthiocholine chloride as substrate incubated for 15 mins by Ellman's method
Cholinesterase [7] = molecular target: Cholinesterase (Homo sapiens, UniProt P06276); assay: Inhibition of human serum BChE using butyrylthiocholine chloride as substrate incubated for 15 mins by Ellman's method
Acetylcholinesterase [8] = molecular target: Acetylcholinesterase (Homo sapiens, UniProt P22303); assay: Inhibition of human erythrocyte AChE using acetylthiocholine chloride as substrate incubated for 15 mins by Ellman's method
Chain of Acetylcholinesterase (Homo sapiens, UniProt P22303) (P22303 whole entry): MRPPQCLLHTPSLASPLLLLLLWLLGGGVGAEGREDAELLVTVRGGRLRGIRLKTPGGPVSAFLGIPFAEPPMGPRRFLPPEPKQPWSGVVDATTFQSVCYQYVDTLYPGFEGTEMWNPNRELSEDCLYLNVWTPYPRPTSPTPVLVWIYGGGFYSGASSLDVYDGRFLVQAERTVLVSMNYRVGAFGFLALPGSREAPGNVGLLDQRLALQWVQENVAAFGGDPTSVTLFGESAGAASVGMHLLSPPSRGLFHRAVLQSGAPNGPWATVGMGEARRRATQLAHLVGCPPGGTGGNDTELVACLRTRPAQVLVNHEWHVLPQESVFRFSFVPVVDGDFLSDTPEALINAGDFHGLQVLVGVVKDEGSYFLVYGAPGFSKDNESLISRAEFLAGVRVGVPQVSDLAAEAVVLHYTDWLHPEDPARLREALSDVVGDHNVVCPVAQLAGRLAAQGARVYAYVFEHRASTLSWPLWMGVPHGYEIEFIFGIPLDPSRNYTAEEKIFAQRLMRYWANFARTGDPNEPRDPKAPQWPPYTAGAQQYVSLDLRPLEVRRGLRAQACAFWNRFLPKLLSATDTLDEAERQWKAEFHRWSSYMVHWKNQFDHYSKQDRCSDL

Chain of Cholinesterase (Equus caballus, UniProt P81908) (P81908 whole entry): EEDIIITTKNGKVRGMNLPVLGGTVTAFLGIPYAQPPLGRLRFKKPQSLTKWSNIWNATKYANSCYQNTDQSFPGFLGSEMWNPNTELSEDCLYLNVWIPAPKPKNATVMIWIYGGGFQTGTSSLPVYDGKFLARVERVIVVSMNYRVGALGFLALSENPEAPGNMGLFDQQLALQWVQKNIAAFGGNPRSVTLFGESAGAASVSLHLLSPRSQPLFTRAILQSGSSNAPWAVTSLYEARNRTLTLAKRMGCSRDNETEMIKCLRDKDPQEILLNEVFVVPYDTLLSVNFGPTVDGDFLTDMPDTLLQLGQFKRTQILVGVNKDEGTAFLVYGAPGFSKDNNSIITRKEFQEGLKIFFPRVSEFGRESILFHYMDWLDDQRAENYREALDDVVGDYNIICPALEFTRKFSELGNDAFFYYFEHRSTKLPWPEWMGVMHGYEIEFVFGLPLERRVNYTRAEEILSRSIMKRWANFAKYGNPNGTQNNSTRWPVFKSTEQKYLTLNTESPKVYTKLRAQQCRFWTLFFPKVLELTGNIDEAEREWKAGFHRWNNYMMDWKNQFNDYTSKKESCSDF
Chain of Cholinesterase (Homo sapiens, UniProt P06276) (P06276 whole entry): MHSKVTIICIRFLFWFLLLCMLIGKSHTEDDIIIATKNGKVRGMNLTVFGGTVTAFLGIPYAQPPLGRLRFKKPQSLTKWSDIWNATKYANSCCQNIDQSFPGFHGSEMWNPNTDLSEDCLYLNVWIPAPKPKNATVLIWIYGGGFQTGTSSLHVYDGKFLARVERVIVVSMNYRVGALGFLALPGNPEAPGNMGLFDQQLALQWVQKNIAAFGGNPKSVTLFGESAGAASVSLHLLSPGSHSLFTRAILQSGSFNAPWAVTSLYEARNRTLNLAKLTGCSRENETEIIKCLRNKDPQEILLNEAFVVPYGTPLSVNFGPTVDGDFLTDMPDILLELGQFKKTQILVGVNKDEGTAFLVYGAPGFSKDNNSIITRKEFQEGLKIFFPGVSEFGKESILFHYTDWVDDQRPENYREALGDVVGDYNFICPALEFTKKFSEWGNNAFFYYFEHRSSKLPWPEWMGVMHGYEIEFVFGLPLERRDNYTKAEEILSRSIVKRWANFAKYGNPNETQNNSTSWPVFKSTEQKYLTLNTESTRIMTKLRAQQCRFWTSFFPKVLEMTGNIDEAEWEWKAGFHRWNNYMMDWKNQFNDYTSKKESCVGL
Chain of Butyrylcholinesterase (Q9JKC1 whole entry): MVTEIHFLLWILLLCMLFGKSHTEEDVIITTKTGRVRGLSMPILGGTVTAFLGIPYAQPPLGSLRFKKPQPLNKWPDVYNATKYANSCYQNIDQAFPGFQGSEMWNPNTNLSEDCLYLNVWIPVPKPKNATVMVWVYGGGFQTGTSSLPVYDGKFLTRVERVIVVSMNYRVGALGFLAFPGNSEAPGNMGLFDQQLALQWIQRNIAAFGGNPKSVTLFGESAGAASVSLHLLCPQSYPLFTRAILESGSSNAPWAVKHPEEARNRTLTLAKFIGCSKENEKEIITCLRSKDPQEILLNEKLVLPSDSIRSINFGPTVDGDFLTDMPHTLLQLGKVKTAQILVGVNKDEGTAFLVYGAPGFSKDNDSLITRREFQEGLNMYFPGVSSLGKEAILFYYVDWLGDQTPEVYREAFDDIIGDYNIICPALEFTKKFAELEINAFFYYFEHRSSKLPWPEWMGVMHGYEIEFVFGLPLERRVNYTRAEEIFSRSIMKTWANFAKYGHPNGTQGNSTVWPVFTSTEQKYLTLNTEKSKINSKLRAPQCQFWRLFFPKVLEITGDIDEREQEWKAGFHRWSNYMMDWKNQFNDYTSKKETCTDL
Chain of Acetylcholinesterase (Electrophorus electricus, UniProt O42275) (O42275 whole entry): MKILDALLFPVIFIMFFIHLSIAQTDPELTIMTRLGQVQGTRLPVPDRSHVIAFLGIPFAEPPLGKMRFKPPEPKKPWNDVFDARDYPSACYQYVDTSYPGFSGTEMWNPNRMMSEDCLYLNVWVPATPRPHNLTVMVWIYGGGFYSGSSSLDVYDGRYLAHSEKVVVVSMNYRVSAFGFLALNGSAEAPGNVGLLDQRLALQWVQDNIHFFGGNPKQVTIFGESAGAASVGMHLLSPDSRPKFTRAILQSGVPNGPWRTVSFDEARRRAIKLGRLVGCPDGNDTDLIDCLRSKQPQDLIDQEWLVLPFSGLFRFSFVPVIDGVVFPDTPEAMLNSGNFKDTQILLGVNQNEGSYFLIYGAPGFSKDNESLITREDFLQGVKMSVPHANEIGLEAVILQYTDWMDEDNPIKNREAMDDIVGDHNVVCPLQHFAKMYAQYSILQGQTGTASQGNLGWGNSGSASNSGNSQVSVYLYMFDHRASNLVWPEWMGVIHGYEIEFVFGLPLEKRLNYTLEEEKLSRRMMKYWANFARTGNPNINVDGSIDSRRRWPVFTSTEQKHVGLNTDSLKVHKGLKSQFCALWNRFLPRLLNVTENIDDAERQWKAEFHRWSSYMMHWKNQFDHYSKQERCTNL

| Compound | inhibition at 20 µM [1] [%] | IC50 (Butyrylcholinesterase) [µM] | IC50 [2] [µM] | Ratio IC50 [3] | IC50 (Acetylcholinesterase [4]) [µM] | IC50 (Acetylcholinesterase [5]) [µM] | IC50 (Cholinesterase [6]) [µM] | IC50 (Cholinesterase [7]) [µM] | IC50 (Acetylcholinesterase [8]) [µM] |
| --- | --- | --- | --- | --- | --- | --- | --- | --- | --- |
| CN(CCN1C(=O)c2ccccc2C1=O)Cc1ccccc1 | < 5 | 26.2 | 7.3 | 1.4 | 15.9 | 16 | 22.5 |  |  |
| CN(CCCCN1C(=O)c2ccccc2C1=O)Cc1ccccc1 | < 5 | 8.4 | 4.2 | 5.6 | 2.6 | 4.3 | 14.5 |  |  |
| C#CCN(CCCCCCN1C(=O)c2ccccc2C1=O)Cc1ccccc1OC | < 5 | 22.5 | 9.1 | 2.7 | 4.9 | 4.3 | 13.4 |  |  |
| C#CCN(CCCCCN1C(=O)c2ccccc2C1=O)Cc1ccccc1 | < 5 | 58.5 | 5.9 | 4.1 | 3.4 | 10.4 | 13.9 |  |  |
| COc1ccccc1CN(C)CCCCCCN1C(=O)c2ccccc2C1=O | < 5 | 42.9 | 11.3 | 27.8 | 1.1 | 0.6 | 30.6 |  |  |
| COc1ccccc1CN(C)CCCN1C(=O)c2ccccc2C1=O | < 5 | 27.7 | 9.8 | 0.8 | 4.6 | 9.8 | 3.7 |  |  |
| CCN(CCCCN1C(=O)c2ccccc2C1=O)Cc1ccccc1OC | < 5 | 18.9 | 9.4 | 238 | 0.13 | 0.04 | 31 | 12.9 | 0.28 |
| CC(C)N1CCN(CCCCN2C(=O)c3ccccc3C2=O)CC1 | < 5 | 17.9 | 8.9 | 4.4 | 5.3 | 3.9 | 23.4 |  |  |
| CCN(CCCN1C(=O)c2ccccc2C1=O)Cc1ccccc1 | < 5 | 13.2 | 6.9 | 2.8 | 3.3 | 1.1 | 9.3 |  |  |
| CCN(CCN1C(=O)c2ccccc2C1=O)Cc1ccccc1OC | < 5 | 15.9 | 6.9 | 5.1 | 3.6 | 0.9 | 18.3 |  |  |
| CCN(CCCCCCN1C(=O)c2ccccc2C1=O)Cc1ccccc1 | < 5 | 18.1 | 12.2 | 11 | 1 | 3.4 | 11 | 15.8 | 3.7 |
| C#CCN(CCCCCCN1C(=O)c2ccccc2C1=O)Cc1ccccc1 | < 5 | 16.2 | 8.2 | 1.1 | 6.8 | 7.6 | 7.6 |  |  |
| COc1ccccc1CN(C)CCCCN1C(=O)c2ccccc2C1=O | < 5 | 9.1 | 11.6 | 6.1 | 1.3 | 3.7 | 7.9 |  |  |
| CC(C)N1CCN(CCCCCCN2C(=O)c3ccccc3C2=O)CC1 | < 5 | 27.9 | 13.1 | 2.2 | 8.8 | 6.3 | 19.4 |  |  |
| C#CCN[C@@H]1CCc2ccccc21 [RASAGILINE] |  |  |  |  |  |  |  | 4.76 | 0.019 |
| C#CCN(CCCCCN1C(=O)c2ccccc2C1=O)Cc1ccccc1OC | < 5 | 44.4 | 6.3 | 2.7 | 9.6 | 14 | 26.3 |  |  |
| C#CCN(CCCCN1C(=O)c2ccccc2C1=O)Cc1ccccc1OC | < 5 | 39 | 5.6 | 2.4 | 3.4 | 5.1 | 8.3 |  |  |
| CCN(CCN1C(=O)c2ccccc2C1=O)Cc1ccccc1 | < 5 | 16.1 | 8.3 | 2.4 | 9.3 | 13.2 | 21.9 |  |  |
| COc1ccccc1CN(C)CCN1C(=O)c2ccccc2C1=O | < 5 | 14.8 | 8.4 | 1.9 | 6.2 | 13.9 | 11.9 |  |  |
| CCN(CCCCCCN1C(=O)c2ccccc2C1=O)Cc1ccccc1OC | < 5 | 14.9 | 11.7 | 19.2 | 0.38 | 0.33 | 7.3 | 8.9 | 0.59 |
| CC(C)N1CCN(CCCN2C(=O)c3ccccc3C2=O)CC1 | < 5 | 32.9 | 10.4 | 2.7 | 12.9 | 8.3 | 34.9 |  |  |
| CCN(CCCN1C(=O)c2ccccc2C1=O)Cc1ccccc1OC | < 5 | 9.4 | 4.7 | 12.6 | 0.9 | 0.4 | 11.3 | 14.6 | 4.5 |
| CN(CCCCCCN1C(=O)c2ccccc2C1=O)Cc1ccccc1 | < 5 | 20.7 | 8.3 | 8.5 | 2.1 | 3.9 | 17.9 |  |  |
| CC(C)N1CCN(CCCCCN2C(=O)c3ccccc3C2=O)CC1 | < 5 | 16.3 | 12.6 | 4.4 | 7.9 | 5.4 | 34.5 |  |  |
| CN(CCCN1C(=O)c2ccccc2C1=O)Cc1ccccc1 | < 5 | 22.8 | 6.1 | 2.8 | 8.2 | 12.8 | 22.9 |  |  |
| CCN(CCCCN1C(=O)c2ccccc2C1=O)Cc1ccccc1 | < 5 | 13.3 | 6.9 | 22.8 | 0.43 | 0.6 | 9.8 | 15.3 | 0.68 |
| C#CCN(CCCCN1C(=O)c2ccccc2C1=O)Cc1ccccc1 | < 5 | 32.4 | 6.5 | 2.6 | 4.9 | 4 | 12.7 |  |  |
| C#CCN(CCCN1C(=O)c2ccccc2C1=O)Cc1ccccc1OC | < 5 | 5.3 | 7.6 | 0.43 | 13.5 | 4.1 | 5.8 |  |  |
